Measured values taken from EP0381533A2, “Cyclic monophosphates of purine and pyrimidine acyclonucleosides” (Merck & Co., Inc., priority 1989, dated 1990).

Test system: Eisenhart Human Cytomegalovirus
Assay: Human Cytomegalovirus (HCMV) Plaque Reduction Assay
Format: cell-based
Settings: MRC-5 cells (human fetal lung); ~60 PFUs; plaques counted on day 6 post inoculation
Method: Activity against Human Cytomegalovirus is determined by employing the Human Cytomegalovirus (HCMV) Assay. Two tissue culture assays are available; Cell Protection and Plaque Reduction. Both assays utilize MRC-5 cells (human fetal lung) and Eisenhart Human Cytomegalovirus. The following is a description of the Cell Protection and Plaque Reduction Assays.
Eight-two fold dilutions are made of the compound to be tested. After the dilutions are made, 0.5 ml of each dilution is added to each of three decanted wells of MRC-5. Two wells are used to determine the antiviral activity of the compound to be tested and one well is used to determine toxicity. The MRC-5 plates are then decanted, and the wells are infected with 0.1 ml of Human Cytomegalovirus inoculum containing ∼60 PFUs. The plates are then adsorbed for 1 hour at 37°C/5% CO₂. After one hour the virus is removed from the wells and duplicate wells are refed with dilutions of the compound to be tested. The plates are then incubated at 37°C/5% CO₂. Plaques are counted microscopically on day 6 post inoculation.

SMILES | Plag Red [µg/mL]
Nc1nc2c(ncn2COC(CO)CO)c(=O)[nH]1 [2-amino-1,9-dihydro-9-((2-hydroxy-1-(hydroxymethyl)-ethoxy)methyl)-6H-Purin-6-one] | 0.78
Nc1nc2c(ncn2COC2COP(=O)(O)OC2)c(=O)[nH]1 (stereo not drawn) [Sodium 9-[(2-hydroxy-1,3,2-dioxophosphorinan-5-yl)-oxymethyl]guanine P-oxide] | 0.19
Nc1ccn(COC2COP(=O)(O)OC2)c(=O)n1 (stereo not drawn) [Sodium 1-[(2-hydroxy-1,3,2-dioxophosphorinan-5-yl)-oxymethyl]cytosine P-oxide] | 25.00
